Reference: ChEMBL document CHEMBL1201862, “PubChem BioAssay data set” (2004)
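Compound exposure: 48 hours, 5 concentrations, 96-well plates. GI50: concentration for 50% inhibition of growth.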 Calls of active or inactive are those of the source. Cut-off read from the data, not from the text of the source: active = GI50 up to about 1.1 µM and inactive = higher.

Key:
Assay in all cases: NCI tumour cell line growth inhibition, 48 h
SNB-75 = system: SNB-75
SK-MEL-2 = system: SK-MEL-2
OVCAR-8 = system: OVCAR-8
KM12 = system: KM12
SK-MEL-28 = system: SK-MEL-28
OVCAR-3 = system: OVCAR-3
COLO 205 = system: COLO 205
OVCAR-5 = system: OVCAR-5
HT-29 = system: HT-29
HOP-92 = system: HOP-92
SF-539 = system: SF-539
MCF7 = system: MCF7
NCI-H522 = system: NCI-H522
HCT-15 = system: HCT-15
SN12C = system: SN12C
MDA-N = system: MDA-N
MOLT-4 = system: MOLT-4
NCI/ADR-RES = system: NCI/ADR-RES
K562 = system: K562
786-0 = system: 786-0
MDA-MB-231 = system: MDA-MB-231
IGROV-1 = system: IGROV-1
SK-MEL-5 = system: SK-MEL-5
TK-10 = system: TK-10
LOX IMVI = system: LOX IMVI
U-251 = system: U-251
A549 = system: A549
SR = system: SR
SF-295 = system: SF-295
HL-60 = system: HL-60
SW-620 = system: SW-620
T47D = system: T47D
UO-31 = system: UO-31
RPMI-8226 = system: RPMI-8226
Malme-3M = system: Malme-3M
HCC 2998 = system: HCC 2998
M14 = system: M14
BT-549 = system: BT-549
MDA-MB-435 = system: MDA-MB-435
PC-3 = system: PC-3
UACC-257 = system: UACC-257
DU-145 = system: DU-145
SF-268 = system: SF-268
A498 = system: A498
CAKI-1 = system: CAKI-1
SK-OV-3 = system: SK-OV-3
ACHN = system: ACHN
EKVX = system: EKVX
RXF 393 = system: RXF 393
OVCAR-4 = system: OVCAR-4
NCI-H226 = system: NCI-H226
UACC-62 = system: UACC-62
HCT-116 = system: HCT-116
CCRF-CEM = system: CCRF-CEM
HOP-62 = system: HOP-62
NCI-H23 = system: NCI-H23
NCI-H460 = system: NCI-H460
SNB-19 = system: SNB-19
Hs-578T = system: Hs-578T

Measured: GI50

N#CC1=C(N)OC2=C(CCCc3ccccc32)C1c1ccc([N+](=O)[O-])cc1 (configuration not stated)
12.2 µM: HCT-15
inactive: SNB-75 55 µM | SK-MEL-2 17.9 µM | OVCAR-8 17.9 µM | KM12 16.1 µM | SK-MEL-28 15.8 µM | OVCAR-3 13.5 µM | COLO 205 16.1 µM | OVCAR-5 21.8 µM | HT-29 12.2 µM | HOP-92 19.1 µM | SF-539 19.2 µM | MCF7 16.7 µM | NCI-H522 8.22 µM | SN12C 15.1 µM | MDA-N 15.9 µM | NCI/ADR-RES 11.9 µM | K562 2.07 µM | 786-0 18.1 µM | MDA-MB-231 26.9 µM | IGROV-1 19.2 µM | SK-MEL-5 14.3 µM | TK-10 28.8 µM | LOX IMVI 19.1 µM | U-251 15.5 µM | A549 19 µM | SR 10.9 µM | SF-295 14.9 µM | HL-60 5.93 µM | SW-620 13.6 µM | T47D 8.18 µM | UO-31 11.8 µM | RPMI-8226 1.85 µM | Malme-3M 16.3 µM | HCC 2998 13.6 µM | M14 13.6 µM | BT-549 2.91 µM | MDA-MB-435 15.9 µM | PC-3 17.1 µM | UACC-257 14.8 µM | DU-145 10.1 µM | SF-268 15.1 µM | A498 12 µM | CAKI-1 29.6 µM | SK-OV-3 30.9 µM | ACHN 17.9 µM | EKVX 13.8 µM | RXF 393 13.2 µM | OVCAR-4 15.8 µM | NCI-H226 24.7 µM | UACC-62 11.2 µM | HCT-116 12.8 µM | CCRF-CEM 4.52 µM | HOP-62 17.2 µM | NCI-H23 15.2 µM | NCI-H460 17.7 µM | SNB-19 17.3 µM | Hs-578T 36.5 µM
active: MOLT-4 0.336 µM

C/C=C1/CN2CCC34C5=CC(=O)C(c6cc7c(cc6OC)N(C)C6=C(C(=O)OC)CC8(CC)CCCN9CCC67C98)=CC5=NC23CCC1C4C(=O)OC (configuration not stated)
14.6 µM: HCT-15
inactive: SNB-75 8.11 µM | SK-MEL-2 16.5 µM | OVCAR-8 14.9 µM | KM12 16.4 µM | SK-MEL-28 16.8 µM | OVCAR-3 14.3 µM | COLO 205 8.61 µM | OVCAR-5 12.2 µM | HT-29 14.2 µM | HOP-92 7.85 µM | SF-539 14.6 µM | MCF7 9.14 µM | NCI-H522 11.1 µM | SN12C 14.5 µM | MDA-N 14 µM | MOLT-4 2.45 µM | NCI/ADR-RES 18.8 µM | K562 3.48 µM | 786-0 12.1 µM | MDA-MB-231 10.2 µM | IGROV-1 17.9 µM | SK-MEL-5 15.2 µM | TK-10 17 µM | LOX IMVI 16.7 µM | U-251 15.2 µM | A549 16.2 µM | SR 2.73 µM | SF-295 17.7 µM | HL-60 1.93 µM | SW-620 8.73 µM | T47D 15.1 µM | UO-31 12.1 µM | RPMI-8226 4.04 µM | Malme-3M 15 µM | HCC 2998 15.7 µM | M14 12.3 µM | BT-549 16 µM | MDA-MB-435 13 µM | PC-3 13 µM | UACC-257 14 µM | DU-145 18.7 µM | SF-268 18 µM | A498 16.6 µM | CAKI-1 9.51 µM | SK-OV-3 16.7 µM | ACHN 15.6 µM | EKVX 13.8 µM | RXF 393 10.3 µM | OVCAR-4 14 µM | NCI-H226 20.4 µM | UACC-62 16.6 µM | HCT-116 10.9 µM | CCRF-CEM 2.28 µM | HOP-62 16.8 µM | NCI-H23 14.8 µM | NCI-H460 14.3 µM | SNB-19 16 µM | Hs-578T 7.21 µM

CN(CCCNC(=O)c1c2ccc3ccccc3c2nn1C)CCCNC(=O)c1c2ccc3ccccc3c2nn1C
6.93 µM: HCT-15
inactive: SNB-75 8.2 µM | SK-MEL-2 5.04 µM | OVCAR-8 13.3 µM | KM12 8.13 µM | SK-MEL-28 2.3 µM | OVCAR-3 16 µM | COLO 205 1.81 µM | OVCAR-5 11.5 µM | HT-29 2.53 µM | HOP-92 3.21 µM | SF-539 6.24 µM | MCF7 3.94 µM | NCI-H522 7.35 µM | SN12C 12.4 µM | MDA-N 2.96 µM | MOLT-4 4.85 µM | NCI/ADR-RES 13.6 µM | K562 3.48 µM | 786-0 11.6 µM | MDA-MB-231 10.5 µM | IGROV-1 8.79 µM | SK-MEL-5 2.23 µM | TK-10 2.67 µM | LOX IMVI 3.15 µM | U-251 7.85 µM | A549 12.4 µM | SR 3 µM | SF-295 4.29 µM | HL-60 10.4 µM | SW-620 7.74 µM | T47D 7.62 µM | UO-31 6.47 µM | RPMI-8226 1.95 µM | Malme-3M 3.03 µM | HCC 2998 1.87 µM | M14 2.05 µM | BT-549 10.6 µM | MDA-MB-435 2.29 µM | PC-3 12.4 µM | UACC-257 1.9 µM | DU-145 17.5 µM | SF-268 11.5 µM | A498 6.9 µM | CAKI-1 1.6 µM | SK-OV-3 15 µM | ACHN 11.5 µM | EKVX 9.14 µM | RXF 393 5.94 µM | OVCAR-4 11.7 µM | NCI-H226 15.1 µM | UACC-62 1.87 µM | HCT-116 4.76 µM | CCRF-CEM 8.18 µM | HOP-62 14.8 µM | NCI-H23 15.1 µM | NCI-H460 4.52 µM | SNB-19 14.9 µM | Hs-578T 14.2 µM
